These results are taken from a melting point compilation (Tetko et al.; mined from patent text by program, amines drawn as free bases though some values may be those of a salt).

A word on the melting point: it is the temperature of the solid-liquid transition.

Turning to `CS(=O)c1ccc(-c2cc(C#N)nn2-c2ccc(F)cc2)cc1` (stereo not given), the melting point fell in the range of 104 to 105 °C.
As to `CN(C)C(=O)c1ccc(S(=O)(=O)c2ccc(NC(=O)[C@@](C)(O)C(F)(F)F)c(Cl)c2)cc1`, the melting point was 120 °C.
The molecule `N=C(Nc1cc(Cl)cc(NC(=O)/C=C/c2ccccc2Cl)c1)c1cccs1` showed a melting point of 123 to 124 °C.
As to `O=C(Cc1ccccc1C(F)(F)F)c1c(O)c2cccnc2n(-c2ccccc2)c1=O`, the melting point was 140 to 142 °C.
Molecule `CCCc1c(OCCCCCOc2ccc3nc(CCC(=O)O)ccc3c2CCC(=O)O)ccc2c1OCCC2=O` registered a melting point of 123 to 128 °C.
With `CC(=O)OC1CSC(Oc2ccc(-c3cncnc3)nc2)C(OC(C)=O)C1OC(C)=O` (stereo not given), the melting point came out at 215 °C.
Under `CCN(CC)CCCNC(=O)/C(=C/C=C/c1cc2ccccc2o1)OC` stands 79 °C.
As to `Cc1c(C)c2c(c(C)c1O)CCC(C)(C(=O)N1CCC(c3ccc(N)cc3)CC1)O2` (stereo not given), the melting point was in the range of 153 to 154 °C.
Take `N#Cc1nn(-c2c(Cl)cc(C(F)(F)F)cc2Cl)c(N)c1-c1ccoc1Cl`: the melting point was found to be 153 °C.
Molecule `CC(C)n1nc(-c2sc(C(=O)NC3CC3)nc2-c2cccc(F)c2)ccc1=O` had a melting point of 146 to 147 °C.
As for `Cc1oc(-c2ccccc2)nc1COc1ccc(CON)cc1`, the melting point lay in the range of 68 to 69 °C.
Turning to `O=C(O)CC1COc2ccccc2O1` (stereo not given), the melting point was 95 °C.
Turning to `Cc1cc(OC(F)(F)C(F)Cl)nc(N)n1` (stereo not given), the melting point lay within 73 to 74 °C.
`CC(=O)N[C@H]1CC[C@H](CCN2CCN(c3ncc(C)c4occc34)CC2)CC1` yielded a melting point of 208 °C.
In turn, `COc1ccc(C(C[N+](=O)[O-])SC(=S)N(C)C)cc1OC` (stereo not given) showed a melting point of 108 to 110 °C.
`COc1cc2c(cc1OC)CN(CCc1ccc(NC(=O)c3cccc4c(=O)cc(-c5ccccc5)oc34)cc1)CC2` yielded a melting point of 135 to 140 °C.
In turn, `CC(CC(=O)Nc1c(Cl)ccc2nc(N3CCC(N)C3)ccc12)c1ccccc1` (stereo not given) showed a melting point of 204 to 207 °C.
With `Cc1cccc(Br)c1C=O`, the melting point lay in the range of 48 to 49 °C.
For the molecule `COc1cc2ncnc(N3CCN(C(=O)NCc4cnc(C)cn4)CC3)c2cc1OC`, the melting point lay within 202 to 204 °C.
Then `CCOC(=O)N1CC(C)C2=NNC(=O)CC2C1` (stereo not given), with 101 to 103 °C; and `O=C(OCC=Cc1ccccc1)c1cccc2nnsc12`, with 70 to 72 °C; and `CS(=O)(=O)c1ccc(-n2cc(-c3ccc(F)cc3)nc2-c2ccccn2)cc1`, with 88 to 91 °C.
Turning to `CCN(CC)Cc1nn2cc(-c3ccccc3)nc2s1`, the melting point was determined as 138 °C.
`C[Si](C)(C)C#Cc1ccc([N+](=O)[O-])cc1` showed a melting point of 95 to 100 °C.
In turn, `CNC(=O)n1cc2c(n1)-c1ccc(Cl)cc1C(c1ccccc1F)=NC2` came in with a melting point of 192 to 193 °C.
`Cc1cc2c(cc1C(C)SCC(N)=O)OCO2` (stereo not given) had a melting point of 121 to 122 °C.
As for `CC(=O)Oc1ccc(C(=O)Nc2ccc(Cl)c(NC(=O)c3ccc(C#N)cc3)c2)cc1`, the melting point lay in the range of 195 to 196 °C.
As to `O=C(O)c1c(-c2ccccc2)c(=O)[nH]c2cc(Cl)ccc12`, the melting point is 258 °C.
Then `Cn1c(C(F)(F)F)cc(=O)n(-c2c(F)cc(Cl)c3c2OC(C)(C)C3O)c1=O` (stereo not given), with 82 to 83 °C; and `Nc1ccc(S(=O)(=O)c2cc(Br)nc(N3CCNCC3)c2)cc1`, with 173 to 175 °C; and `CS(=O)(=O)c1ccc(-c2cn(-c3ccccc3)nc2C(=O)O)cc1`, with 207 to 208 °C.
Molecule `C[C@@H]([C@H](O)c1ccc(O)cc1)N1CCC(O)(Cc2ccccc2)CC1` (relative stereo) registered a melting point of 173 to 174 °C.
The molecule `NC(=O)CN1C(=O)[C@@H](NC(=O)[C@@H]2CCC(=O)C2)[C@H](c2ccccc2)Sc2ccccc21` gave a melting point of 135 to 150 °C.
In turn, `S=c1[nH]c2cccc(OCCN3CCc4ccccc4C3)c2[nH]1` registered a melting point of 249 to 250 °C.
In turn, `COc1cc2cnnc(N3CCC(CC(C)O)CC3)c2cc1OC` (stereo not given) gave a melting point of 154 to 156 °C.
On to `CCCCc1cc(C#N)ncc1C(=O)O`, for which the melting point was in the range of 267 to 268 °C.
Turning to `N#CCCSN1C(=O)CCC1=O`, the melting point was 110 to 112 °C.
Under `O=C(c1ccc(OC(F)(F)F)cc1)c1sccc1O` stands 67 to 70 °C.
As to `C=CCCCCCCCCNC(=O)N[C@H]1CCCNC(=O)C1`, the melting point fell in the range of 98 to 99 °C.
`Cc1nc2c(OCc3ccccc3)nccn2c1N` had a melting point of 126 to 133 °C.
For `CN(c1cccc2cc(C3=NCC(CC(=O)O)S3)[nH]c12)S(=O)(=O)c1ccccn1` (stereo not given), the melting point was 231 to 233 °C.
In turn, `COc1ccc(F)c(N)c1` displayed a melting point of 27 to 28 °C.
The molecule `C#CCn1nnc2cc3c(cc2c1=O)OC1CCCN1C3=O` (stereo not given) yielded a melting point of 186 to 188 °C.
`CC1(C)CC(=O)C2=C(C1)NC1=C(C(=O)CC(C)(C)C1)C2c1cccc(Oc2ccc(Cl)cc2)c1` displayed a melting point of 238 to 239 °C.
Under `CCC(C)Nc1c([N+](=O)[O-])cc(C)c(Cl)c1[N+](=O)[O-]` (stereo not given) stands 40 to 46 °C.
Under `COC(=O)c1cc(Oc2c(Cl)cc(Cl)cc2Cl)ccc1[N+](=O)[O-]` stands 101 to 103 °C.
As for `N#CC(C#N)=Cc1ccc(OCc2ccccc2)cc1`, the melting point was in the range of 146 to 148 °C.
In the case of `CN1CCC(c2c[nH]c3ccc(NC(=O)c4ccsc4)nc23)CC1`, the melting point fell in the range of 123 to 127 °C.
Molecule `COc1cccc2c(CCN(CC3CC3)C3COc4c(F)ccc(C(N)=O)c4C3)coc12` (stereo not given) came in with a melting point of 130 to 138 °C.
The molecule `N=C(N)Nc1nc(CCCCC(N)=NO)cs1` gave a melting point of 167 to 168 °C.
For `CC(C)(C)c1ccc(C=NOCc2ccc(CC(=O)O)cc2)cc1`, the melting point is 93.3 to 96.2 °C.
On to `O=c1[nH]c2ccc(Cl)cc2c2nc(-c3cccnc3)nn12`, for which the melting point lay within 189 to 193 °C.
Molecule `C=COC(=O)n1c(SCc2ccc(C)cn2)nc2cscc21` registered a melting point of 78 to 80 °C.
On to `COC(=O)c1ccc(-c2ccc(-c3ccc4c(c3)C(C)(C)CCC4(C)C)n2C)cc1`, for which the melting point fell in the range of 104 to 105 °C.
`CCOC(=O)C1=Cc2cc(-c3ccc(OC(F)(F)F)cc3)ccc2OCC1`: the melting point was in the range of 59 to 63 °C.
With `CNC(=O)c1cc2n(n1)-c1ccc(Cl)cc1C(c1ccccc1)=NC2`, the melting point was 170 to 172 °C.
Turning to `CCCc1c(OCCC2Cc3cc(CC(=O)O)ccc3O2)ccc(C(C)=O)c1O` (stereo not given), the melting point lay within 118 to 126 °C.
As for `O=C(Cn1c(-c2ccc(Cl)cc2)nc2cccnc21)NC1CCCCC1`, the melting point lay in the range of 240 to 241 °C.
As to `CC(O)c1cc(F)ccc1Oc1nc2ccc(NC(=O)Nc3cccc([N+](=O)[O-])c3)cc2cc1Cc1ccccc1` (stereo not given), the melting point lay in the range of 217 to 219 °C.
`N#Cc1c(NC(=O)CO)cccc1NC(=O)CO` displayed a melting point of 188 to 189 °C.
Under `COc1cc2ncc(C#N)c(Sc3cccc(Br)c3)c2cc1OC` stands 173 to 175 °C; under `Clc1ccc2oc(CBr)cc2c1`, 70 °C.
`CC1=C(C(=O)O)CCC(C)(C)C1` registered a melting point of 108 to 110 °C.
For `OCCOc1nc(N2CCCCC2)c2nc(OCCO)nc(N3CCCCC3)c2n1`, the melting point lay within 148 to 150 °C.
For `CC1(C)CON(Cc2ccc(Nc3cc4ccccc4c(=O)o3)cc2)C1=O`, the melting point was in the range of 175 to 177 °C.
Under `CCCCN1CCC(CNC(=O)c2ccc(N)n3cc(CC)nc23)CC1` stands 139 to 145 °C.
Then `CCCCCCCCCOc1ccc2c(c1)C(CCNC(=O)CCC)CC2` (stereo not given), with 53 to 55 °C; and `Cc1nnc2ccc(-c3ccccc3F)nn12`, with 147 to 149 °C.
In the case of `CSCC[C@H]1NC(=O)[C@@H]([C@H](C)c2cccc3ccccc23)NC1=O`, the melting point is 265 to 268 °C.
Turning to `CCOc1cc2ncc(C#N)c(Nc3ccc(OCc4cccc(F)c4)c(Cl)c3)c2cc1NC(=O)/C=C/CN(C)C`, the melting point was 165 to 167 °C.
Take `COc1ccc2ccc(O)c(-c3nnc(Cl)c4ccccc34)c2c1`: the melting point is greater than 210 °C.
With `O=Cc1ccc(O)c(OCc2ccccc2)c1`, the melting point was in the range of 123 to 124 °C.
Under `C[C@@H]([C@@H]1CCC(=O)O1)N(Cc1ccccc1)Cc1ccccc1` stands 61 to 62 °C; under `CN(C)S(=O)(=O)c1cc(-c2csc(=Nc3ccc(O)cc3)n2C)ccc1Cl`, 188 to 190 °C.
On to `Cc1nn(C)c(C)c1-c1cccc(-n2c(N)nc3ccccc32)c1`, for which the melting point is 198 to 200 °C.
`CC(=O)OCc1ccc(OCC(OC(C)=O)c2cc3cc(C(C)C)ccc3o2)cc1` (stereo not given) showed a melting point of 74 to 76 °C.
Molecule `CN(C)C=C1CCc2ccn(C)c2C1=O` came in with a melting point of 49 to 51 °C.
`CCCC(=O)Nc1cc(C(Cl)(Cl)Cl)ccn1` had a melting point of 88 to 90 °C.
Under `ClCCC1(CCCl)c2ccccc2Sc2ccccc21` stands 61 to 62 °C; under `O=C(O)CCC(=O)c1cc2c(s1)CCc1ccccc1C2`, 202 to 203 °C.
Then `CC(C)(C)C(=O)Oc1ccc(-c2nnn(Cc3ccccc3)n2)cc1`, with 131 to 134 °C; and `CCOC(=O)c1cnc2c(C=O)cc(CN3CCOCC3)cc2c1O`, with 202 to 204 °C; and `NS(=O)(=O)c1ccccc1C=CC(F)(F)F`, with 153 to 154 °C.
`Cc1cccc(COc2ccc(-c3ccc(C(=O)NC(Cc4ccccc4)C(=O)O)cc3)cc2)c1` (stereo not given) returned a melting point of 204 °C.
Under `CN1CCN(S(=O)(=O)c2cccc(NC(=O)c3cnn4c(C(F)(F)F)cc(-c5ccc(Cl)c(Cl)c5)nc34)c2)CC1` stands 181 °C; under `CCN(CC)C(=S)Oc1cc(Br)cc(Br)c1`, 72 to 74 °C.
`CCC(CC)Nc1cc(C)nc(Oc2c(C)cccc2C)c1N`: the melting point was 98 to 100 °C.
In turn, `COc1ccc(N2CCOCC2)c2sc(NC(=O)N(C)[C@H]3CC[C@H](O)CC3)nc12` showed a melting point of 158 to 162 °C.
Molecule `CCCn1c(=O)cc(NNC(=S)NC(C)=O)n(Cc2ccccc2)c1=O` returned a melting point of 184 to 185 °C.
Molecule `CN(c1ccc(O)cc1)S(=O)(=O)c1ccc(C(F)(F)F)cc1` yielded a melting point of 145 to 146 °C.
